In patent US20260166121A1, “COMPOSITIONS AND METHODS FOR THE TREATMENT OF HEMORRHAGIC SHOCK” (Children's Hospital Medical Center, priority 2022, published 2026):

Experiments:
[1] = test system: AMPKα1 wild-type (WT) and knockout (KO) mice; experiment: Plasma levels of humanin by competitive ELISA after hemorrhagic shock; format: in vivo; details: 100 μg/kg intra-arterially, 3 h after resuscitation
From the text: (§1) Murine model of hemorrhagic shock. The experiments conformed to the Guide for the Care and Use of Laboratory Animals published by the US National Institutes of Health (Eighth edition, 2011) and had the approval of the Institutional Animal Care and Use Committee. Homozygous AMPKα1 wild-type (WT) and AMPKα1 knockout (KO) mice were established on a C57/BL6 genetic background by the crossbreeding (>10 generations) of a breeding pair provided by Dr. Benoit Viollet of the University of Paris Descartes (Paris, France). For these experiments, female AMPKα1 WT and KO mice were generated by a breeding scheme utilizing heterozygous mutant mice. Female mice were used at random stages of the estrous cycle at the age of 3 to 5 months and assigned to the different experimental groups after routine genotyping by quantitative polymerase chain reaction. All mice were allowed free access to water and a maintenance diet in a 12-h light/dark cycle, with room temperature at 21±2° C. Mice were anesthetized with pentobarbital (80 mg/kg) intraperitoneally and prepared for hemorrhagic shock, as previously described. […] Mice were monitored for 3 hours after resuscitation for cardiovascular parameters. […]
Plasma levels of humanin. Endogenous plasma levels of humanin were measured by competitive ELISA ([…], MyBioSource, San Diego, CA) using the protocol recommended by the manufacturer.

STAT3 = experiment: Western blot of STAT3, pSTAT3(Ser727), pSTAT3(Tyr705) in cytosol and nuclear extracts of lung and heart; format: in vivo, mice
From the text: (§2) Murine model of hemorrhagic shock. The experiments conformed to the Guide for the Care and Use of Laboratory Animals published by the US National Institutes of Health (Eighth edition, 2011) and had the approval of the Institutional Animal Care and Use Committee. Homozygous AMPKα1 wild-type (WT) and AMPKα1 knockout (KO) mice were established on a C57/BL6 genetic background by the crossbreeding (>10 generations) of a breeding pair provided by Dr. Benoit Viollet of the University of Paris Descartes (Paris, France). For these experiments, female AMPKα1 WT and KO mice were generated by a breeding scheme utilizing heterozygous mutant mice. Female mice were used at random stages of the estrous cycle at the age of 3 to 5 months and assigned to the different experimental groups after routine genotyping by quantitative polymerase chain reaction. All mice were allowed free access to water and a maintenance diet in a 12-h light/dark cycle, with room temperature at 21±2° C. Mice were anesthetized with pentobarbital (80 mg/kg) intraperitoneally and prepared for hemorrhagic shock, as previously described. Briefly, either the left or right femoral artery was cannulated using PE-10 tubing, and connected to a blood pressure transducer (PowerLab, AD Instruments, Colorado Springs, CO) for measurement of mean arterial blood pressure (MABP) and heart rate (HR). Blood was removed from the femoral artery over a 10-minute period until MABP reached 30±5 mmHg. The mice were kept in this MABP range for 90 min by additional blood removal or small volume transfusion. At the end of the shock period, mice were resuscitated by infusing their shed blood and twice that amount in Lactated Ringer's solution over a 10-min period. AMPKα1 WT and KO mice were also randomly assigned to two treatment groups: a vehicle group (distilled water, 500 μL) and a humanin-G (100 μg/kg) group. Drug treatment was given intra-arterially as single bolus right before resuscitation, and at 1 and 2 hours thereafter. Dose of humanin was chosen according to reported pharmacokinetics and pharmacodynamics of the drug in the mice. Mice were monitored for 3 hours after resuscitation for cardiovascular parameters. […] Mice were sacrificed at 3 hours after resuscitation and blood, heart and lungs were collected for biochemical assays.
Cytosol and nuclear extracts. Heart and lung tissues were homogenized using a Polytron homogenizer (Brinkman Instruments, West Orange, NY) in a buffer containing 0.32 M sucrose, 10 mM TrisHCl (pH 7.4), 1 mM EGTA, 2 mM EDTA, 5 mM NaN3, 10 mM β-mercaptoethanol, […], 0.15 mM pepstatin A, 0.2 mM phenylmethanesulfonyl fluoride, 50 mM NaF, 1 mM sodium orthovanadate, and 0.4 nM microcystin. Samples were centrifuged at 1,000 g for 10 min at […] and the supernatants collected as cytosol extracts. The pellets were then solubilized in Triton buffer (1% Triton X-100, 250 mM NaCl, 50 mM Tris HCl at pH 7.5, 3 mM EGTA, 3 mM EDTA, 0.1 mM phenylmethanesulfonyl fluoride, 0. 1 mM sodium orthovanadate, 10% glycerol, 2 mM p-nitrophenyl phosphate, 0.5% NP-40, and […]). The lysates were centrifuged at 15,000 g for 30 min at […] and the supernatant collected as nuclear extracts. The Bradford protein assay was used for quantitative determination of total proteins.
Western blot analysis. Cytosol and nuclear content of STAT3 and its two phosphorylated active forms pSTAT3(Tyr705) and pSTAT3(Ser727), and mitochondrial content of pSTAT3(Ser727) and the Complex I subunit GRIM-19 (gene associated with retinoid-IFN-induced mortality) were determined by immunoblotting analyses. Extracts were heated at 70° C. in equal volumes of ×4 Protein Sample Loading Buffer. Twenty μg of protein were loaded per lane on a 10% Bis-Tris gel. Proteins were separated electrophoretically and transferred to nitrocellulose membranes. […]

[2] = test system: AMPKα1 wild-type (WT) and knockout (KO) mice; experiment: ATP assay in heart tissue after hemorrhagic shock; format: in vivo; details: 100 μg/kg intra-arterially, 3 h after resuscitation
From the text: as §1
ATP assay. ATP levels were measured in heart tissue homogenates using a commercially available ATP assay kit (BioVision, Milpitas, CA) and following the protocol recommended by the manufacturer.

[3] = test system: AMPKα1 wild-type (WT) and knockout (KO) mice; experiment: Transmission electron microscopy of heart tissue mitochondria after hemorrhagic shock; format: in vivo; details: 100 μg/kg intra-arterially
From the text: as §1, with “C.” for “C. Mice were anesthetized with pentobarbital (80 mg/kg) intraperitoneally and prepared for hemorrhagic shock, as previously described.”
Transmission electron microscopy. […] The total number of mitochondria, and the presence of abnormal mitochondria with loose matrix, fragmented cristae and membranes were determined in four consecutive cells in four different sections for each animal by using NIH ImageJ analysis.

[4] = test system: AMPKα1 wild-type (WT) and knockout (KO) mice; experiment: Plasma levels of cytokines (multiplex array) after hemorrhagic shock; format: in vivo; details: AMPKα1 WT or KO mice; 100 μg/kg intra-arterially; 3 h after resuscitation
From the text: as §1, with “C.” for “C. Mice were anesthetized with pentobarbital (80 mg/kg) intraperitoneally and prepared for hemorrhagic shock, as previously described.”
Plasma levels of cytokines. Plasma levels of interleukin (IL)-1β, IL-6, IL-10, IL-17, keratinocyte-derived chemokine (KC), and tumor necrosis factor-α (TNFα) were evaluated by a commercially available multiplex array system (Linco-Research, St. Charles, MO) using the protocol recommended by the manufacturer.

[5] = test system: AMPKα1 wild-type (WT) and knockout (KO) mice; experiment: Lung myeloperoxidase assay (neutrophil infiltration) after hemorrhagic shock; format: in vivo; details: 100 μg/kg intra-arterially, 3 h after resuscitation
From the text: as §1, with “C.” for “C. Mice were anesthetized with pentobarbital (80 mg/kg) intraperitoneally and prepared for hemorrhagic shock, as previously described.”
Myeloperoxidase assay. Myeloperoxidase (MPO) activity was determined as an index of neutrophil accumulation. […] The rate of change in absorbance was measured by spectrophotometry at 650 nm. MPO activity was defined as the quantity of enzyme degrading […] of hydrogen peroxide/min at 37° C. and expressed in units per 100 mg weight of tissue.

[6] = test system: AMPKα1 wild-type (WT) and knockout (KO) mice; experiment: Lung histopathologic analysis after hemorrhagic shock; format: in vivo; details: 100 μg/kg intra-arterially, 3 h after resuscitation
From the text: as §1
Histopathologic analysis. […] Sections were stained with hematoxylin and eosin and evaluated by an independent observer blinded to the treatment groups. […]

[7] = test system: AMPKα1 wild-type (WT) and knockout (KO) mice; experiment: Murine hemorrhagic shock model: mean arterial blood pressure and heart rate; format: in vivo
From the text: Murine model of hemorrhagic shock. The experiments conformed to the Guide for the Care and Use of Laboratory Animals published by the US National Institutes of Health (Eighth edition, 2011) and had the approval of the Institutional Animal Care and Use Committee. Homozygous AMPKα1 wild-type (WT) and AMPKα1 knockout (KO) mice were established on a C57/BL6 genetic background by the crossbreeding (>10 generations) of a breeding pair provided by Dr. Benoit Viollet of the University of Paris Descartes (Paris, France). For these experiments, female AMPKα1 WT and KO mice were generated by a breeding scheme utilizing heterozygous mutant mice. Female mice were used at random stages of the estrous cycle at the age of 3 to 5 months and assigned to the different experimental groups after routine genotyping by quantitative polymerase chain reaction. All mice were allowed free access to water and a maintenance diet in a 12-h light/dark cycle, with room temperature at 21±2° C. Mice were anesthetized with pentobarbital (80 mg/kg) intraperitoneally and prepared for hemorrhagic shock, as previously described. Briefly, either the left or right femoral artery was cannulated using PE-10 tubing, and connected to a blood pressure transducer (PowerLab, AD Instruments, Colorado Springs, CO) for measurement of mean arterial blood pressure (MABP) and heart rate (HR). Blood was removed from the femoral artery over a 10-minute period until MABP reached 30±5 mmHg. The mice were kept in this MABP range for 90 min by additional blood removal or small volume transfusion. At the end of the shock period, mice were resuscitated by infusing their shed blood and twice that amount in Lactated Ringer's solution over a 10-min period. AMPKα1 WT and KO mice were also randomly assigned to two treatment groups: a vehicle group (distilled water, 500 μL) and a humanin-G (100 μg/kg) group. Drug treatment was given intra-arterially as single bolus right before resuscitation, and at 1 and 2 hours thereafter. […] Mice were monitored for 3 hours after resuscitation for cardiovascular parameters. […]

[8] = test system: STAT3 and Complex I subunit GRIM-19; experiment: Western blot of pSTAT3(Ser727) and GRIM-19 in mitochondrial extracts of lung and heart; format: in vivo, mice
From the text: as §2
Mitochondrial extracts. Mitochondria were isolated from hearts and lungs using a commercially available mitochondria isolation kit (TermoFisher Scientific, Waltham, MA) and following the protocol recommended by the manufacturer. The Bradford protein assay was used for quantitative determination of total proteins.
Western blot analysis. Cytosol and nuclear content of STAT3 and its two phosphorylated active forms pSTAT3(Tyr705) and pSTAT3(Ser727), and mitochondrial content of pSTAT3(Ser727) and the Complex I subunit GRIM-19 (gene associated with retinoid-IFN-induced mortality) were determined by immunoblotting analyses. Extracts were heated at 70° C. in equal volumes of ×4 Protein Sample Loading Buffer. Twenty μg of protein were loaded per lane on a 10% Bis-Tris gel. Proteins were separated electrophoretically and transferred to nitrocellulose membranes. Immunoblotting was performed using the IBind Flex Western System (Thermo Fischer Scientific, Waltham, MA) that applies sequential lateral flow to perform blocking and antibody binding. […] For all immunoblotting, the Odyssey LI-COR scanner and software (LI-COR Biotechnology, Lincoln, NE) were used for detection and quantitative analysis.

mice with sepsis = details: cited from earlier work
[9] = test system: AMPKα1 and AMPKα2 subunits; details: thoracic aortas; mice with sepsis; cited from earlier work
[10] = heart, WT mice, 100 μg/kg intra-arterially
[11] = lung, mice of both genotypes, 100 μg/kg intra-arterially
[12] = heart mitochondria, WT or KO mice, compared to vehicle-treated mice

## [Gly14]-Humanin (MAPRGFSCLLLLTGEIDLPVKRRA) [humanin-G, synthetic humanin analogue, serine at position 14 replaced by glycine]
[1]; AMPKα1 WT and KO mice
  plasma humanin levels compared to vehicle-treated groups: not statistically different
[1]; AMPKα1 WT mice, but not KO mice
  plasma levels of humanin compared to control mice: comparable with levels of control mice
STAT3; [10]
  cytosolic or nuclear expression of pSTAT3(Ser727) in heart: did not affect
  cytosolic or nuclear expression of pSTAT3(Tyr705) in heart: did not affect
STAT3; heart, across experimental groups, WT or KO mice
  total levels of STAT3 in heart: no difference
STAT3; lung, across experimental groups, WT or KO mice
  total levels of STAT3 in lung: no difference
STAT3; [11]
  pSTAT3(Ser727) in lung cytosol and nucleus: upregulated only in the nucleus
  pSTAT3(Tyr705) in lung cytosol and nucleus: further upregulated
[2]
  cardiac ATP levels: increased
[3]; AMPKα1 KO mice, 3 h after resuscitation
  cardiac mitochondrial damage: reduced
[3]; AMPKα1 WT mice after hemorrhagic shock
  cardiac mitochondrial structural changes: No abnormal structural changes
[4]
  plasma levels of cytokines (IL-1β, IL-6, IL-10, IL-17, KC, TNFα): did not affect
[5]
  lung MPO activity: significantly reduced
[6]
  lung architecture (histology): significantly improved
[7]; AMPKα1 KO mice, 100 μg/kg intra-arterially at resuscitation, 1 h, 2 h
  MABP recovery to baseline: did not completely recover to baseline
[7]; AMPKα1 WT and KO female mice, 100 μg/kg intra-arterially at resuscitation and 1 h and 2 h thereafter, compared to vehicle-treated groups
  mean arterial blood pressure (MABP): significantly ameliorated
[7]; AMPKα1 WT or KO mice, 100 μg/kg intra-arterially, compared to vehicle-treated groups
  heart rate (HR): did not affect
[8]; [12]
  mitochondrial expression of GRIM-19 in heart: did not affect
  mitochondrial expression of pSTAT3(Ser727) in heart: did not affect
[8]; isolated lung mitochondria, WT and KO mice, 100 μg/kg intra-arterially
  mitochondrial expression of pSTAT3(Ser727) in lung: slightly, but not significantly, increased
[8]; KO mice, 100 μg/kg intra-arterially
  GRIM-19 expression in lung mitochondria: did not affect
[8]; WT mice, 100 μg/kg intra-arterially
  GRIM-19 expression in lung mitochondria: restored levels of GRIM-19 similarly to basal levels

## colivelin: synthetic analogue of humanin; SALLRSIPAPAGASRLLLLTGEIDLP (SEQ ID NO: 8)
Mice with sepsis; mice, Urban C, et al. 2022
  organ injury in experimental septic shock: protective effects
Mice with sepsis; thoracic aortas
  endothelial damage in mice with sepsis: ameliorating
[9]
  activation of AMPKα1 and AMPKα2 subunits: activates
